Measurements reported in US20110171279A1, “POLYETHYLENIMINE BIOCIDES” (NDSU RESEARCH FOUNDATION, priority 2009, published 2011).
Where two headings read alike, the source gives them in different places. Each block holds one molecule with its values, some of them ahead of it.

Tests used:
Type in all cases: cell-based
Cellulophaga lytica = assay: Growth reduction / MIC test against Cellulophaga lytica; settings: for MIC: Cellulophaga lytica
Protocol: (§1) The antimicrobial properties of the Formulations were determined by measuring the minimum inhibitory concentration (MIC) or by using an adaptation of the MIC test. […] Additional details of the MIC method can be found at Andrews, J. M., Journal of Antimicrobial Chemotherapy (2001) 48, 5-16, incorporated herein by reference in its entirety.
(§2) In accordance with the MIC test, working solutions for each Formulation were prepared by dissolving 100 mg of each Formulation in 10 mL of methanol (Sigma-Aldrich) to generate a 10 mg/mL solution. Next, 10 ml of Guillard's F/2 medium was spiked with 200 μL of the 10 mg/mL Formulation solution to achieve a final concentration of 0.2 mg/mL.
(§3) 0.2 mL of each concentration of each Formulation (spiked with C. lytica) was added in triplicate to a 96-well plate. Additionally, 0.2 mL of Guillard's F/2 medium without any C. lytica or Formulation and 0.2 mL of Guillard's F/2 medium with C. lytica, but no Formulations, served as negative and positive growth controls, respectively. The 96-well plates were placed in an illuminated growth cabinet with a 16:8 light:dark cycle (photon flux density 33 μmol m^−2 s^−1) for 48 hrs at 18° C. and measured for chlorophyll fluorescence using a multi-well plate spectrophotometer (excitation: 360 nm; emission: 670 nm). The efficacy of each Formulation was measured by determining the percent reduction in diatom growth as a function of Formulation concentration.
(§4) The antimicrobial activity of Formulations 10-12, also derived from ETCS and PEI, was determined toward a suite of marine microorganisms, namely, Pseudoalteromonas atlantica, Cellulophaga lytica, Cobetia marina, and Halomonas pacifica. The antimicrobial activity of Formulations 10-12 was determined toward these marine microorganisms according to the methods of EXAMPLES 5-7. The MIC for each Formulation against each strain is compared to that of the PEI, ETCS, and TCS (alone) in Table 7.

[1] = test system: Staphylococcus epidermidis; assay: Growth reduction / MIC test against Staphylococcus epidermidis in tryptic soy broth, absorbance 600 nm; settings: for MIC: Staphylococcus epidermidis, read-out: S. epidermidis MIC; for Percent reduction in growth of Staphylococcus epidermidis: Table 9
Protocol: as §1
as §2, with “tryptic soy broth” for “Guillard's F/2 medium”, “the” for “the 10”
(§5) 0.2 mL of each concentration of each Formulation (spiked with S. epidermidis) was added in triplicate to a 96-well plate. Additionally, 0.2 mL of tryptic soy broth without any S. epidermidis or Formulation and 0.2 mL of tryptic soy broth with S. epidermidis, but no Formulations, served as negative and positive growth controls, respectively. Plates were then placed in an incubator, at 37° C. for 24 hrs (with shaking), and then measured for growth by taking absorbance measurements at 600 nm with a multi-well plate spectrophotometer (Synergy HT microplate reader, BioTek Instruments, Winooski, Vt.). The efficacy of each Formulation was measured by determining the percent reduction in bacterial growth as a function of Formulation concentration.
For comparison purposes a benzylpiperidino biocide (“Reference 1”) was prepared using ETCS and synthetic methods similar to those described in U.S. Pat. No. 5,036,077, issued Jul. 30, 1991, and incorporated by reference in its entirety. To make Reference 1, 3.9 g of ETCS and 2 g of 4-benzylpiperidine were reacted in 30 mL of methanol. The mixture was heated at 65° C. for 48 hours. Reaction completion was confirmed by ^1H NMR, ^13C NMR, HMQC (2D) NMR and elemental analysis. The antimicrobial activity of Formulations 69-77 and Reference 1 toward S. epidermidis was measured by determining the percent reduction in bacterial growth as a function of concentration, as was done above in EXAMPLE 3.

Halomonas pacifica = assay: Growth reduction / MIC test against Halomonas pacifica; settings: for MIC: Bisbaumannia pacifica
Protocol: as §1, §2
0.2 mL of each H. pacifica concentration was added in triplicate to a 96-well plate. Additionally, 0.2 mL of Guillard's F/2 medium without any H. pacifica or Formulation and 0.2 mL of Guillard's F/2 medium with H. pacifica, but no Formulations, served as negative and positive growth controls, respectively. The 96-well plates were placed in an illuminated growth cabinet with a 16:8 light:dark cycle (photon flux density 33 μmol m^−2 s^−1) for 48 hrs at 18° C. and measured for chlorophyll fluorescence using a multi-well plate spectrophotometer (excitation: 360 nm; emission: 670 nm). The efficacy of each Formulation was measured by determining the percent reduction in diatom growth as a function of Formulation concentration.
as §4

Navicula incerta [2] = assay: Growth reduction / MIC test against Navicula incerta in Guillard's F/2 medium, chlorophyll fluorescence; settings: Table 12; read-out: N. incerta MIC
Escherichia coli = assay: Growth reduction / MIC test against Escherichia coli in Luria-Bertani broth, absorbance 600 nm; settings: for MIC: Escherichia coli, read-out: E. Coli MIC; for Percent reduction in growth of Escherichia coli: Table 10
Protocol: as §1
as §2, with “Luria-Bertani broth” for “Guillard's F/2 medium”, “the” for “the 10”
as §5, with “E. coli)” for “S. epidermidis)”, “Luria-Bertani” for “tryptic soy”, “E. coli” for “S. epidermidis”, “E. coli,” for “S. epidermidis,”, “HT).” for “HT microplate reader, BioTek Instruments, Winooski, Vt.).”
Next, the antimicrobial activity of Formulations 69-77 and Reference 1 toward E. coli was measured by determining the percent reduction in bacterial growth as a function of concentration. The results for the examples were compared to various PEIs used to produce the examples.

Candida albicans = assay: Antifungal activity, percent reduction in fungal growth of Candida albicans; settings: Table 11
Protocol: Additionally, the antifungal activity of Formulations 69-77 and Reference 1 toward Candida albicans was measured by determining the percent reduction in fungal growth as a function of concentration.

Navicula incerta [3] = assay: Growth reduction / MIC test against Navicula incerta in Guillard's F/2 medium, chlorophyll fluorescence
Protocol: as §1, §2
as §3, with “N. incerta)” for “C. lytica)”, “N. incerta” for “C. lytica”, “N. incerta,” for “C. lytica,”

[4] = Table 12, read-out: C. lytica MIC
[5] = Table 12, read-out: H. pacifica MIC
[6] = Formulation Concentration 0.78125 μg/mL
[7] = Formulation Concentration 1.5625 μg/mL
[8] = Formulation Concentration 3.125 μg/mL
[9] = Formulation Concentration 6.25 μg/mL
[10] = Formulation Concentration 12.5 μg/mL
[11] = Formulation Concentration 25 μg/mL
[12] = Formulation Concentration 50 μg/mL
[13] = Formulation Concentration 100 μg/mL

- MIC (Cellulophaga lytica; [4]): > 100 µg/mL
- MIC ([1]; Table 12): > 100 µg/mL
- MIC (Halomonas pacifica; [5]): > 100 µg/mL
- MIC (Navicula incerta [2]): > 100 µg/mL
- MIC (Escherichia coli; Table 12): > 100 µg/mL
Structure (SMILES): NCCN [ethylenediamine]

Structure (SMILES): Clc1cc(Cl)c(OCC2CO2)c(Cl)c1 (stereo not drawn) [EDCP, 2-((2,4,6-trichlorophenoxy)methyl)oxirane]
- Percent reduction in growth of Staphylococcus epidermidis [1, 6]: 7.58%
- Percent reduction in growth of Staphylococcus epidermidis [1, 7]: 6.34%
- Percent reduction in growth of Staphylococcus epidermidis [1, 8]: 5.04%
- Percent reduction in growth of Staphylococcus epidermidis [1, 9]: 8.44%
- Percent reduction in growth of Staphylococcus epidermidis [1, 10]: 6.20%
- Percent reduction in growth of Staphylococcus epidermidis [1, 11]: 8.90%
- Percent reduction in growth of Staphylococcus epidermidis [1, 12]: 5.00%
- Percent reduction in growth of Staphylococcus epidermidis [1, 13]: 0.00%
- Percent reduction in growth of Candida albicans (Candida albicans; [6]): 11.66%
- Percent reduction in growth of Candida albicans (Candida albicans; [7]): 15.25%
- Percent reduction in growth of Candida albicans (Candida albicans; [8]): 0.00%
- Percent reduction in growth of Candida albicans (Candida albicans; [9]): 1.45%
- Percent reduction in growth of Candida albicans (Candida albicans; [10]): 0.00%
- Percent reduction in growth of Candida albicans (Candida albicans; [11]): 0.00%
- Percent reduction in growth of Candida albicans (Candida albicans; [12]): 21.55%
- Percent reduction in growth of Candida albicans (Candida albicans; [13]): 25.83%
- Percent reduction in growth of Escherichia coli (Escherichia coli; [6]): 14.85%
- Percent reduction in growth of Escherichia coli (Escherichia coli; [7]): 1.60%
- Percent reduction in growth of Escherichia coli (Escherichia coli; [8]): 0.00%
- Percent reduction in growth of Escherichia coli (Escherichia coli; [9]): 55.43%
- Percent reduction in growth of Escherichia coli (Escherichia coli; [10]): 52.95%
- Percent reduction in growth of Escherichia coli (Escherichia coli; [11]): 61.26%
- Percent reduction in growth of Escherichia coli (Escherichia coli; [12]): 1.38%
- Percent reduction in growth of Escherichia coli (Escherichia coli; [13]): 91.65%

- MIC (Cellulophaga lytica; [4]): > 100 µg/mL
- MIC ([1]; Table 12): > 100 µg/mL
- MIC (Halomonas pacifica; [5]): > 100 µg/mL
- MIC (Navicula incerta [2]): > 100 µg/mL
- MIC (Escherichia coli; Table 12): > 100 µg/mL
Structure (SMILES): OCCNCCO [diethanolamine]

Structure (SMILES): C=CCN [allyl amine]
- MIC (Cellulophaga lytica; [4]): > 100 µg/mL
- MIC ([1]; Table 12): > 100 µg/mL
- MIC (Halomonas pacifica; [5]): > 100 µg/mL
- MIC (Navicula incerta [2]): > 100 µg/mL
- MIC (Escherichia coli; Table 12): > 100 µg/mL

- N. incerta MIC (Navicula incerta [3]; Table 12): >100 µg/mL
- C. lytica MIC (Cellulophaga lytica; Table 12): >100 µg/mL
- S. epidermidis MIC ([1]; Table 12): >100 µg/mL
- H. pacifica MIC (Halomonas pacifica; Table 12): >100 µg/mL
- E. Coli MIC (Escherichia coli; Table 12): >100 µg/mL
Structure (SMILES): CC(O)CNCC(C)O (stereo not drawn) [diisopropanolamine]

- MIC (Cellulophaga lytica; [4]): > 100 µg/mL
- MIC ([1]; Table 12): > 100 µg/mL
- MIC (Halomonas pacifica; [5]): > 100 µg/mL
- MIC (Navicula incerta [2]): > 100 µg/mL
- MIC (Escherichia coli; Table 12): > 100 µg/mL
Structure (SMILES): COCCNCCOC [bis(methoxyethyl), bis(2-methoxyethyl)amine]

Structure (SMILES): CNc1ccccc1 [N-methyl aniline, N-methylaniline]
- MIC (Navicula incerta [3]; read-out: N. incerta MIC): > 100 µg/mL
- MIC (Cellulophaga lytica; read-out: C. lytica MIC, Table 12): > 100 µg/mL
- MIC [1]: > 100 µg/mL
- MIC (Halomonas pacifica; read-out: H. pacifica MIC, Table 12): > 100 µg/mL
- MIC (Escherichia coli): > 100 µg/mL
